# In patent US20140378374A1, “METHODS OF TREATMENT” (GlaxoSmithKline Intellectual Property (No.2) Limited, priority 2013, published 2014):
# Where two headings read alike, the source gives them in different places.
# Key:
# [1] = each group with CKD (mild, moderate, severe); cited from earlier work
# [2] = system: patients with type 2 diabetes; details: head-to-head trial; cited from earlier work
# [3] = system: patients with T2D and RI; type: in vivo, human; details: for Model-adjusted change from baseline A1C, LS mean (SE): ANCOVA
# Procedure: Therapies for type 2 diabetes mellitus (T2DM) with renal impairment (RI) are limited and may require dose adjustment. This 52-week randomized, double blind, active controlled, Phase III parallel group study examined efficacy/safety of QW Albi injections (30 mg uptitrated to 50 mg if needed) vs daily Sita in patients with T2D and RI (eGFR≧15 and <90 mL/min/1.73 m^2) and A1C 7-10% on lifestyle (11% of subjects) or metformin (Met), thiazoldinedone (TZD), sulfonylureas (SU), or any combination (89% of patients). […] Primary endpoint was A1C change at week 26 for Albi vs Sita (noninferiority with subsequent superiority analysis). Eligible subjects were men or non pregnant, nonlactating women, 18 years of age or older, with a historical diagnosis of T2DM who were experiencing inadequate glycemic control on their current regimen of diet and exercise or their antidiabetic therapy of metformin, TZD, SU, or any combination of these OAD medications.
# [4] = Week 26, Moderate RI (eGFR 30-59)
# [5] = Week 26, Severe RI (eGFR 15-29)
smiles,measurement,setting,value
"CCCCCCCCCCCCCCCC(=O)N[C@@H](CCC(=O)NCCCC[C@H](NC(=O)[C@H](C)NC(=O)[C@H](C)NC(=O)[C@H](CCC(N)=O)NC(=O)CNC(=O)[C@H](CCC(=O)O)NC(=O)[C@H](CC(C)C)NC(=O)[C@H](Cc1ccc(O)cc1)NC(=O)[C@H](CO)NC(=O)[C@H](CO)NC(=O)[C@@H](NC(=O)[C@H](CC(=O)O)NC(=O)[C@H](CO)NC(=O)[C@@H](NC(=O)[C@H](Cc1ccccc1)NC(=O)[C@@H](NC(=O)CNC(=O)[C@H](CCC(=O)O)NC(=O)[C@H](C)NC(=O)[C@@H](N)Cc1cnc[nH]1)[C@@H](C)O)[C@@H](C)O)C(C)C)C(=O)N[C@@H](CCC(=O)O)C(=O)N[C@@H](Cc1ccccc1)C(=O)N[C@H](C(=O)N[C@@H](C)C(=O)N[C@@H](Cc1c[nH]c2ccccc12)C(=O)N[C@@H](CC(C)C)C(=O)N[C@H](C(=O)N[C@@H](CCCNC(=N)N)C(=O)NCC(=O)N[C@@H](CCCNC(=N)N)C(=O)NCC(=O)O)C(C)C)[C@@H](C)CC)C(=O)O [liraglutide, reference compound]",exposure vs group with normal renal function,[1],reduced exposure
same,"nausea, percentage",[2],29%
same,"vomiting, percentage",[2],9%
"N[C@@H](CC(=O)N1CCn2c(nnc2C(F)(F)F)C1)Cc1cc(F)c(F)cc1F [Sitagliptin, sitagliptin, reference compound]","Week 26 A1C, mean",[3]; Any RI (eGFR 15-89),7.68%
same,"Week 26 A1C, mean",[3]; Mild RI (eGFR 60-89 mL/min/1.73 m2),7.50%
same,"Week 26 A1C, mean",[3]; Moderate RI (eGFR 30-59),7.91%
same,"Week 26 A1C, mean",[3]; Severe RI (eGFR 15-29),7.67%
same,"A1C<7% achieved, patients",[3]; Week 26,30.5%
same,FPG change,[3]; Week 26,-3.9 mg/dL
same,weight change,[3]; Week 26,-0.2 kg
same,"Model-adjusted change from baseline A1C, LS mean (SE)","[3]; Week 26, Any RI (eGFR 15-89)",−0.52%
same,"Model-adjusted change from baseline A1C, LS mean (SE)","[3]; Week 26, Mild RI (eGFR 60-89)",−0.67%
same,"Model-adjusted change from baseline A1C, LS mean (SE)",[3]; [4],−0.31%
same,"Model-adjusted change from baseline A1C, LS mean (SE)",[3]; [5],−0.61%
same,"Change from baseline A1C, mean (SD)","[3]; Week 26, Any RI (eGFR 15-89)",−0.54%
same,"Change from baseline A1C, mean (SD)","[3]; Week 26, Mild RI (eGFR 60-89)",−0.66%
same,"Change from baseline A1C, mean (SD)",[3]; [4],−0.37%
same,"Change from baseline A1C, mean (SD)",[3]; [5],−0.65%
same,Adverse Event rate: diarrhea,"[3]; both, human, in vivo, 26 weeks",6.1%
same,Adverse Event rate: nausea,"[3]; both, human, in vivo, 26 weeks",2.8%
same,Adverse Event rate: vomiting,"[3]; both, human, in vivo, 26 weeks",0.8%
same,Hypoglycemia rate,"[3]; both, human, in vivo, 26 weeks",13.4%
same,"Hypoglycemia, severe (number)","[3]; both, human, in vivo, 26 weeks",2
same,Injection site reaction rate,"[3]; both, human, in vivo, 26 weeks",2.8%
same,On-therapy adverse event: Constipation,"[3]; both, human, in vivo, 26 weeks",5 (2.0) n (%)
same,On-therapy adverse event: Diarrhea,"[3]; both, human, in vivo, 26 weeks",15 (6.1) n (%)
same,On-therapy adverse event: Hypertension,"[3]; both, human, in vivo, 26 weeks",15 (6.1) n (%)
same,On-therapy adverse event: Nasopharyngitis,"[3]; both, human, in vivo, 26 weeks",16 (6.5) n (%)
same,On-therapy adverse event: Upper respiratory tract infection,"[3]; both, human, in vivo, 26 weeks",16 (6.5) n (%)
same,On-therapy adverse event: Urinary tract infection,"[3]; both, human, in vivo, 26 weeks",15 (6.1) n (%)
